#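 Compound exposure: 48 hours, 5 concentrations, 96-well plates. GI50 = concentration required for 50% inhibition of growth.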 The source made the active and inactive calls. No stated cut-off is given here; in the data, active = GI50 up to about 1.1 µM and inactive = higher.
# Tests used:
# Experiment in all cases: NCI tumour cell line growth inhibition, 48 h
# K562 = system: K562
# MDA-MB-231 = system: MDA-MB-231
# SK-MEL-28 = system: SK-MEL-28
# ACHN = system: ACHN
# UO-31 = system: UO-31
# NCI-H23 = system: NCI-H23
# Hs-578T = system: Hs-578T
# A498 = system: A498
# DU-145 = system: DU-145
# LOX IMVI = system: LOX IMVI
# MOLT-4 = system: MOLT-4
# MCF7 = system: MCF7
# 786-0 = system: 786-0
# SR = system: SR
# OVCAR-4 = system: OVCAR-4
# SW-620 = system: SW-620
# OVCAR-5 = system: OVCAR-5
# Malme-3M = system: Malme-3M
# HCT-116 = system: HCT-116
# HCT-15 = system: HCT-15
# A549 = system: A549
# TK-10 = system: TK-10
# RXF 393 = system: RXF 393
# OVCAR-8 = system: OVCAR-8
# HCC 2998 = system: HCC 2998
# T47D = system: T47D
# NCI-H522 = system: NCI-H522
# SF-539 = system: SF-539
# NCI-H460 = system: NCI-H460
# SNB-19 = system: SNB-19
# OVCAR-3 = system: OVCAR-3
# SF-295 = system: SF-295
# KM12 = system: KM12
# HOP-62 = system: HOP-62
# UACC-257 = system: UACC-257
# SK-MEL-5 = system: SK-MEL-5
# COLO 205 = system: COLO 205
# BT-549 = system: BT-549
# NCI/ADR-RES = system: NCI/ADR-RES
# CCRF-CEM = system: CCRF-CEM
# HT-29 = system: HT-29
# HOP-92 = system: HOP-92
# RPMI-8226 = system: RPMI-8226
# M14 = system: M14
# U-251 = system: U-251
# EKVX = system: EKVX
# NCI-H226 = system: NCI-H226
# SNB-75 = system: SNB-75
# PC-3 = system: PC-3
# CAKI-1 = system: CAKI-1
# SK-OV-3 = system: SK-OV-3
# IGROV-1 = system: IGROV-1
# SN12C = system: SN12C
# UACC-62 = system: UACC-62
# SF-268 = system: SF-268
# SK-MEL-2 = system: SK-MEL-2
# MDA-MB-435 = system: MDA-MB-435
# MDA-N = system: MDA-N
# HL-60 = system: HL-60
structure (smiles),measurement,setting,value
O=C(/C=C/c1csc(-c2ccccc2)n1)NCc1ccc(C(=O)NCc2ccccc2)cc1,GI50,K562,> 100 µM (inactive)
same,GI50,MDA-MB-231,18.7 µM (inactive)
same,GI50,SK-MEL-28,> 100 µM (inactive)
same,GI50,ACHN,67.1 µM (inactive)
same,GI50,UO-31,> 100 µM (inactive)
same,GI50,NCI-H23,> 100 µM (inactive)
same,GI50,Hs-578T,13.3 µM (inactive)
same,GI50,A498,64.9 µM (inactive)
same,GI50,DU-145,> 100 µM (inactive)
same,GI50,LOX IMVI,> 100 µM (inactive)
same,GI50,MOLT-4,> 100 µM (inactive)
same,GI50,MCF7,> 100 µM (inactive)
same,GI50,786-0,33 µM (inactive)
same,GI50,SR,> 100 µM (inactive)
same,GI50,OVCAR-4,> 100 µM (inactive)
same,GI50,SW-620,> 100 µM (inactive)
same,GI50,OVCAR-5,> 100 µM (inactive)
same,GI50,Malme-3M,92 µM (inactive)
same,GI50,HCT-116,> 100 µM (inactive)
same,GI50,HCT-15,> 100 µM
same,GI50,A549,> 100 µM (inactive)
same,GI50,TK-10,31.9 µM (inactive)
same,GI50,RXF 393,61 µM (inactive)
same,GI50,OVCAR-8,26.4 µM (inactive)
same,GI50,HCC 2998,> 100 µM (inactive)
same,GI50,T47D,> 100 µM (inactive)
same,GI50,NCI-H522,64.7 µM (inactive)
same,GI50,SF-539,32.3 µM (inactive)
same,GI50,NCI-H460,> 100 µM (inactive)
same,GI50,SNB-19,26.5 µM (inactive)
same,GI50,OVCAR-3,> 100 µM (inactive)
same,GI50,SF-295,30.4 µM (inactive)
same,GI50,KM12,> 100 µM (inactive)
same,GI50,HOP-62,11.3 µM (inactive)
same,GI50,UACC-257,> 100 µM (inactive)
same,GI50,SK-MEL-5,> 100 µM (inactive)
same,GI50,COLO 205,> 100 µM (inactive)
same,GI50,BT-549,> 100 µM (inactive)
same,GI50,NCI/ADR-RES,50.8 µM (inactive)
same,GI50,CCRF-CEM,> 100 µM (inactive)
same,GI50,HT-29,41.2 µM (inactive)
same,GI50,HOP-92,24.4 µM (inactive)
same,GI50,RPMI-8226,> 100 µM (inactive)
same,GI50,M14,> 100 µM (inactive)
same,GI50,U-251,32.9 µM (inactive)
same,GI50,EKVX,> 100 µM (inactive)
same,GI50,NCI-H226,> 100 µM (inactive)
same,GI50,SNB-75,19.2 µM (inactive)
same,GI50,PC-3,> 100 µM (inactive)
same,GI50,CAKI-1,25.2 µM (inactive)
same,GI50,SK-OV-3,> 100 µM (inactive)
same,GI50,IGROV-1,37.2 µM (inactive)
same,GI50,SN12C,> 100 µM (inactive)
same,GI50,UACC-62,> 100 µM (inactive)
same,GI50,SF-268,35.3 µM (inactive)
same,GI50,SK-MEL-2,> 100 µM (inactive)
same,GI50,MDA-MB-435,> 100 µM (inactive)
C=CC[C@H]1O[Si](C(C)(C)C)(C(C)(C)C)[C@H](C)[C@H]1C,GI50,K562,> 100 µM (inactive)
same,GI50,MDA-MB-231,> 100 µM (inactive)
same,GI50,SK-MEL-28,> 100 µM (inactive)
same,GI50,ACHN,39.4 µM (inactive)
same,GI50,UO-31,> 100 µM (inactive)
same,GI50,NCI-H23,> 100 µM (inactive)
same,GI50,A498,> 100 µM (inactive)
same,GI50,LOX IMVI,> 100 µM (inactive)
same,GI50,MOLT-4,> 100 µM (inactive)
same,GI50,MCF7,> 100 µM (inactive)
same,GI50,786-0,> 100 µM (inactive)
same,GI50,SR,59.6 µM (inactive)
same,GI50,OVCAR-4,> 100 µM (inactive)
same,GI50,SW-620,> 100 µM (inactive)
same,GI50,OVCAR-5,> 100 µM (inactive)
same,GI50,Malme-3M,20.3 µM (inactive)
same,GI50,HCT-116,> 100 µM (inactive)
same,GI50,HCT-15,> 100 µM
same,GI50,A549,> 100 µM (inactive)
same,GI50,TK-10,> 100 µM (inactive)
same,GI50,OVCAR-8,> 100 µM (inactive)
same,GI50,HCC 2998,> 100 µM (inactive)
same,GI50,T47D,> 100 µM (inactive)
same,GI50,NCI-H522,> 100 µM (inactive)
same,GI50,SF-539,> 100 µM (inactive)
same,GI50,SNB-19,13.6 µM (inactive)
same,GI50,OVCAR-3,> 100 µM (inactive)
same,GI50,SF-295,> 100 µM (inactive)
same,GI50,KM12,> 100 µM (inactive)
same,GI50,HOP-62,> 100 µM (inactive)
same,GI50,UACC-257,> 100 µM (inactive)
same,GI50,MDA-N,> 100 µM (inactive)
same,GI50,SK-MEL-5,> 100 µM (inactive)
same,GI50,COLO 205,> 100 µM (inactive)
same,GI50,BT-549,> 100 µM (inactive)
same,GI50,NCI/ADR-RES,> 100 µM (inactive)
same,GI50,CCRF-CEM,> 100 µM (inactive)
same,GI50,HT-29,> 100 µM (inactive)
same,GI50,HOP-92,24.3 µM (inactive)
same,GI50,RPMI-8226,> 10 µM (inactive)
same,GI50,M14,> 100 µM (inactive)
same,GI50,HL-60,> 100 µM (inactive)
same,GI50,U-251,> 100 µM (inactive)
same,GI50,EKVX,> 100 µM (inactive)
same,GI50,NCI-H226,> 100 µM (inactive)
same,GI50,SNB-75,> 100 µM (inactive)
same,GI50,PC-3,> 100 µM (inactive)
same,GI50,CAKI-1,> 100 µM (inactive)
same,GI50,SK-OV-3,> 100 µM (inactive)
same,GI50,IGROV-1,> 100 µM (inactive)
same,GI50,SN12C,> 100 µM (inactive)
same,GI50,UACC-62,> 100 µM (inactive)
same,GI50,SK-MEL-2,> 100 µM (inactive)
same,GI50,MDA-MB-435,> 100 µM (inactive)
COc1cc([C@@H]2OC[C@@H]3C(c4cc(OC)c5c(c4)OCO5)OC[C@@H]32)cc(OC)c1OC (stereo partly specified),GI50,K562,> 100 µM (inactive)
same,GI50,MDA-MB-231,> 100 µM (inactive)
same,GI50,SK-MEL-28,> 100 µM (inactive)
same,GI50,ACHN,> 100 µM (inactive)
same,GI50,UO-31,> 100 µM (inactive)
same,GI50,NCI-H23,> 100 µM (inactive)
same,GI50,Hs-578T,> 100 µM (inactive)
same,GI50,A498,> 100 µM (inactive)
same,GI50,DU-145,> 100 µM (inactive)
same,GI50,LOX IMVI,> 100 µM (inactive)
same,GI50,MOLT-4,51.3 µM (inactive)
same,GI50,MCF7,> 100 µM (inactive)
same,GI50,786-0,> 100 µM (inactive)
same,GI50,SR,89.1 µM (inactive)
same,GI50,OVCAR-4,92.5 µM (inactive)
same,GI50,SW-620,> 100 µM (inactive)
same,GI50,OVCAR-5,> 100 µM (inactive)
same,GI50,HCT-116,> 100 µM (inactive)
same,GI50,HCT-15,43.3 µM
same,GI50,A549,> 100 µM (inactive)
same,GI50,TK-10,> 100 µM (inactive)
same,GI50,OVCAR-8,69.8 µM (inactive)
same,GI50,HCC 2998,> 100 µM (inactive)
same,GI50,T47D,46.1 µM (inactive)
same,GI50,NCI-H522,96.8 µM (inactive)
same,GI50,SF-539,> 100 µM (inactive)
same,GI50,NCI-H460,> 100 µM (inactive)
same,GI50,SNB-19,> 100 µM (inactive)
same,GI50,OVCAR-3,> 100 µM (inactive)
same,GI50,SF-295,> 100 µM (inactive)
same,GI50,KM12,> 100 µM (inactive)
same,GI50,HOP-62,> 100 µM (inactive)
same,GI50,UACC-257,> 100 µM (inactive)
same,GI50,SK-MEL-5,26.9 µM (inactive)
same,GI50,COLO 205,> 100 µM (inactive)
same,GI50,BT-549,57.9 µM (inactive)
same,GI50,NCI/ADR-RES,31.6 µM (inactive)
same,GI50,CCRF-CEM,52.4 µM (inactive)
same,GI50,HT-29,42.2 µM (inactive)
same,GI50,HOP-92,> 100 µM (inactive)
same,GI50,RPMI-8226,49.5 µM (inactive)
same,GI50,M14,> 100 µM (inactive)
same,GI50,HL-60,> 10 µM (inactive)
same,GI50,U-251,> 100 µM (inactive)
same,GI50,EKVX,> 100 µM (inactive)
same,GI50,NCI-H226,> 100 µM (inactive)
same,GI50,SNB-75,> 100 µM (inactive)
same,GI50,PC-3,50.1 µM (inactive)
same,GI50,CAKI-1,> 100 µM (inactive)
same,GI50,SK-OV-3,> 100 µM (inactive)
same,GI50,IGROV-1,> 100 µM (inactive)
same,GI50,UACC-62,49.1 µM (inactive)
same,GI50,SF-268,> 100 µM (inactive)
same,GI50,SK-MEL-2,> 100 µM (inactive)
same,GI50,MDA-MB-435,> 100 µM (inactive)

# From ChEMBL document CHEMBL1201862, “PubChem BioAssay data set” (2004)
